The values below are quoted from earlier work in PMC5348030 (Nature chemical biology, 2016).

The subject of the series is HIV integrase.

For `Cc1nnc(C(=O)NC(C)(C)c2nc(C(=O)NCc3ccc(F)cc3)c(O)c(=O)n2C)o1` [raltegravir], the “residence time on its target” value is 4.8 min.
